pEC50, pIC50: −log10 of the molar value. Several values for one entry are separate records, joined by “and”; a condition that tells them apart may be missing. Equal values may be shown once.
The molecules below were run on SARS-CoV-2 (assay: microbe, parasite or virus in culture). Conditions: Severe acute respiratory syndrome coronavirus 2, VeroE6/TMPRSS2, 72 h, 50% SARS-CoV-2 infected cell death inhibitory concentration; VeroE6/TMPRSS2 cells, 3 days culture, CellTiter-Glo 2.0.
Type: cell-based

`Cc1cncc(-n2c(=O)nc(Nc3cc4cn(CC(F)F)nc4cc3Cl)n(Cc3cc(C#N)ccc3C)c2=O)c1` [II-0577] and `Cc1cncc(-n2c(=O)nc(Nc3cc4cn(C)nc4cc3Cl)n(Cc3cc(F)c(F)cc3F)c2=O)c1` [Compound I-0361] are within 0.2 log units of each other in pEC50: 7.07 for the first, 6.88 for the second.

`Cc1cncc(-n2c(=O)[nH]/c(=N\c3cc4cn(C)nc4cc3Cl)n(Cc3cc(F)c(F)c(F)c3)c2=O)c1` [Compound I-0113] gave a pEC50 of 6.75.

Same assay, conditions: Severe acute respiratory syndrome coronavirus 2, VeroE6/TMPRSS2, 72 h, 50% SARS-CoV-2 infected cell death inhibitory concentration; VeroE6/TMPRSS2 cells, 3 days culture; class symbols

First: Cn1cnc(Cn2c(=O)nc(Nc3cc4cn(C)nc4cc3Cl)n(Cc3cc(F)ccc3F)c2=O)n1 [II-0208]
Second: CNc1nc2ccc(Nc3nc(=O)n(-c4cncc(Cl)c4)c(=O)n3Cc3ccc(F)c(C#N)c3)cc2s1 [II-0399]
The pEC50 of the first is lower: 5.00 to 6.00 for the first, greater than 6.00 for the second. The second is the more potent here.

Same assay, conditions: at concentrations up to 50 μM; tested as in Test Example 1 (Reference Example 1)

`Cc1ccc(Cn2c(=O)nc(Nc3cccc(C(F)(F)F)c3)n(Cc3ccc(Cl)c(Cl)c3)c2=O)cc1` [Compound I-066, reference compound] was tested, and the “coronavirus replication inhibitory activity” value was “did not show coronavirus replication inhibitory activity”.
With `O=C(O)c1ccc(Oc2ccc(/N=c3\[nH]c(=O)n(-c4cccs4)c(=O)n3Cc3ccc(Cl)cc3)cc2)nc1` [Compound I-575, reference compound] the “coronavirus replication inhibitory activity” value was “did not show coronavirus replication inhibitory activity”.
In the case of `COc1ncccc1Cn1c(=O)[nH]/c(=N\c2ccc(OC(C)C)c(F)c2)n(Cc2ccc(Cl)cc2)c1=O` [Compound I-0683, reference compound], the “coronavirus replication inhibitory activity” value was “did not show coronavirus replication inhibitory activity”.
For `O=C(O)c1ccc(Oc2ccc(/N=c3\[nH]c(=O)n(-c4ccon4)c(=O)n3Cc3ccc(Cl)cc3)cc2)nc1` [Compound I-580, reference compound], the “coronavirus replication inhibitory activity” value was “did not show coronavirus replication inhibitory activity”.
In the case of `CC(C)Oc1ccc(/N=c2\[nH]c(=O)n(Cc3ncn[nH]3)c(=O)n2Cc2ccc(Cl)cc2)cc1F` [Compound I-0679, reference compound], the “coronavirus replication inhibitory activity” value was “did not show coronavirus replication inhibitory activity”.
`Cc1nc2ccc(/N=c3\[nH]c(=O)n(C[C@H]4COC(C)(C)O4)c(=O)n3Cc3ccc(Cl)cc3)cc2s1` [Compound I-1603, reference compound] was tested, and the “coronavirus replication inhibitory activity” value was “did not show coronavirus replication inhibitory activity”.
For `CC(C)Oc1ccc(/N=c2\[nH]c(=O)n(Cc3ccc[nH]c3=O)c(=O)n2Cc2ccc(Cl)cc2)cc1F` [Compound I-0685, reference compound], the “coronavirus replication inhibitory activity” value was “did not show coronavirus replication inhibitory activity”.

Each molecule was assayed against SARS-CoV-2 3CL protease (Severe acute respiratory syndrome coronavirus 2, UniProt P0DTD1) (assay: biochemical). Conditions: 50% SARS-CoV-2 3CL protease inhibitory concentration, given as class symbols; read-out: IC50.

`Cn1cnc(Cn2c(=O)nc(Nc3cc4cn(CC5(N)CC5)nc4cc3Cl)n(Cc3cc(F)c(F)c(Cl)c3)c2=O)n1` [II-0558] and `Cn1cnc(Cn2c(=O)nc(Nc3cc4cn(CC5(N)CC5)nc4cc3Cl)n(Cc3cc(Cl)c(F)cc3F)c2=O)n1` [II-0557] cannot be ordered by pIC50: greater than 7.00 for the first, greater than 7.00 for the second.

Same assay, conditions: 50% SARS-CoV-2 3CL protease inhibitory concentration; RapidFire MS; read-out: IC50

First: Cc1cncc(-n2c(=O)nc(Nc3cc4cn(CC(F)F)nc4cc3Cl)n(Cc3cc(C#N)ccc3C)c2=O)c1 [II-0577]
Second: Cc1cncc(-n2c(=O)nc(Nc3cc4cn(C)nc4cc3Cl)n(C[C@@H]3CCCN3)c2=O)c1 [II-0085]
The pIC50 of the first is 3.92 log units higher: 8.96 for the first, 5.04 for the second.

Same assay, conditions: IC50

Going from `COc1ccc(Nc2nc(=O)n(Cc3ncn(C)n3)c(=O)n2C2(c3ccc(F)c(F)c3)CC2)cc1` [II-0644] to `COc1ccc(Nc2nc(=O)n(Cc3cc(C(=O)O)c[nH]c3=O)c(=O)n2Cc2cc(F)c(F)c(F)c2)cc1` [Compound I-0089], the pIC50 rises from 5.46 to greater than 7.00.

`COCCN(C)C(=O)Cn1cc2cc(Nc3nc(=O)n(Cc4ncn(C)n4)c(=O)n3Cc3cc(Cl)c(F)cc3F)c(Cl)cc2n1` [II-0135] and `Cn1cnc(Cn2c(=O)nc(Nc3cc4cn(CC(=O)O)nc4cc3Cl)n(Cc3cc(Cl)c(F)cc3F)c2=O)n1` [II-0319] cannot be ordered by pIC50: greater than 7.00 for the first, greater than 7.00 for the second.

Compared with `COc1ccc(Cc2nc(=O)n(Cc3ccc[nH]c3=O)c(=O)n2Cc2cc(F)c(F)c(F)c2)cc1` [II-0327], `COc1ccc(Nc2nc(=O)n(Cc3ccc[nH]c3=O)c(=O)n2Cc2cc(F)c(F)c(F)c2)c(O)c1` [Compound I-0056] is higher in pIC50: 5.82 for the first, greater than 7.00 for the second. The second is the more potent here.

`Cc1nc2cc(Cl)c(Nc3nc(=O)n(Cc4ccc[nH]c4=O)c(=O)n3Cc3cc(F)c(F)c(F)c3)cn2n1` [Compound I-0442] and `Cn1cnc2cc(Cl)c(Nc3nc(=O)n(Cc4ccc[nH]c4=O)c(=O)n3Cc3cc(F)c(F)c(F)c3)cc2c1=O` [Compound I-0097] cannot be ordered by pIC50: greater than 7.00 for the first, greater than 7.00 for the second.

`CC(=O)Nc1nc2ccc(Nc3nc(=O)n(-c4cncc5ccccc45)c(=O)n3Cc3ccc(F)c(C#N)c3)cc2s1` [II-0170] and `Cc1cncc(-n2c(=O)nc(Nc3ccc4[nH]ncc4c3)n(Cc3ccc(F)c(C#N)c3)c2=O)c1` [II-0206] cannot be ordered by pIC50: greater than 7.00 for the first, greater than 7.00 for the second.

`O=C(O)COc1ccc(Nc2nc(=O)n(Cc3ccc[nH]c3=O)c(=O)n2Cc2cc(F)c(F)c(F)c2)c(Cl)c1` [Compound I-0464] and `CNC(=O)COc1ccc(Nc2nc(=O)n(Cc3ccc[nH]c3=O)c(=O)n2Cc2cc(F)c(F)c(F)c2)c(Cl)c1` [Compound I-0463] cannot be ordered by pIC50: greater than 7.00 for the first, greater than 7.00 for the second.

`Cn1cnc(Cn2c(=O)nc(Nc3cc4cn(CC(=O)NC5CC5)nc4cc3Cl)n(Cc3cc(Cl)c(F)cc3F)c2=O)n1` [II-0148] and `Cn1cnc(Cn2c(=O)nc(Nc3cc4cn(CC(=O)NC5CC5)nc4cc3Cl)n(Cc3cc(F)c(F)c(Cl)c3)c2=O)n1` [II-0152] cannot be ordered by pIC50: greater than 7.00 for the first, greater than 7.00 for the second.

`Cn1cnc(Cn2c(=O)nc(Nc3cc4sc(NCC(F)F)nc4cc3Cl)n(Cc3ccc(F)c(C#N)c3)c2=O)n1` [II-0502] and `Cn1cnc(Cn2c(=O)nc(Nc3cc4cn(CC(F)F)nc4cc3F)n(Cc3ccc(F)c(C#N)c3)c2=O)n1` [II-0471] cannot be ordered by pIC50: greater than 7.00 for the first, greater than 7.00 for the second.

`Cn1cc2cc(Nc3nc(=O)n(Cc4nc[nH]n4)c(=O)n3Cc3cc(F)c(F)cc3F)c(Cl)cc2n1` [II-0091] and `Cn1cnc(Cn2c(=O)nc(Nc3cc4cn(C)nc4cc3Cl)n(Cc3cc(Cl)cc(F)c3F)c2=O)n1` [II-0641] cannot be ordered by pIC50: greater than 7.00 for the first, greater than 7.00 for the second.

`Cn1cnc(Cn2c(=O)nc(Nc3cc4cn(C)nc4cc3Cl)n(Cc3cc(Cl)cc(F)c3Cl)c2=O)n1` [II-0640] and `Cn1cnc(Cn2c(=O)nc(Nc3cc4cn(C)nc4cc3Cl)n(Cc3cc(Cl)cc(F)c3OCCO)c2=O)n1` [II-0642] cannot be ordered by pIC50: greater than 7.00 for the first, greater than 7.00 for the second.

`Cn1cnc(Cn2c(=O)nc(Nc3cc4cn(CC(F)F)nc4cc3Cl)n(Cc3cc(Cl)c(F)cn3)c2=O)n1` [II-0540] and `Cn1cnc(Cn2cc3cc(Nc4nc(=O)n(Cc5ncn(C)n5)c(=O)n4Cc4cc(F)c(F)c(Cl)c4)c(Cl)cc3n2)n1` [II-0004] cannot be ordered by pIC50: greater than 7.00 for the first, greater than 7.00 for the second.

`Cc1cncc(-n2c(=O)nc(Nc3cc(C)c(N=S4(=O)CCCC4)cc3Cl)n(Cc3cc(Cl)ccc3C)c2=O)c1` [II-0623] and `Cc1cncc(-n2c(=O)nc(Nc3ccc(N=S4(=O)CCCC4)cc3Cl)n(Cc3cc(Cl)ccc3C)c2=O)c1` [II-0624] cannot be ordered by pIC50: greater than 7.00 for the first, greater than 7.00 for the second.

`Cc1cncc(-n2c(=O)nc(Nc3ccc(N=S(C)(C)=O)cc3C)n(Cc3cc(Cl)ccc3C)c2=O)c1` [II-0631] and `Cc1cncc(-n2c(=O)nc(Nc3cc(C)c(N=S(C)(C)=O)cc3Cl)n(Cc3cc(Cl)ccc3C)c2=O)c1` [II-0629] cannot be ordered by pIC50: greater than 7.00 for the first, greater than 7.00 for the second.

`Cn1cnc(Cn2c(=O)nc(Nc3cc4cn(CC(=O)N5CC(F)(F)C5)nc4cc3Cl)n(Cc3cc(F)c(F)c(Cl)c3)c2=O)n1` [II-0143] and `CN(C)C(=O)Cn1cc2cc(Nc3nc(=O)n(Cc4ncn(C)n4)c(=O)n3Cc3cc(F)c(F)c(Cl)c3)c(Cl)cc2n1` [II-0277] cannot be ordered by pIC50: greater than 7.00 for the first, greater than 7.00 for the second.

`COc1ccc(Nc2nc(=O)n(Cc3cc(C(=O)NCc4cnn(C)c4)c[nH]c3=O)c(=O)n2Cc2cc(F)c(F)c(F)c2)cc1` [II-0324] and `COc1ccc(Nc2nc(=O)n(Cc3ccc(C(=O)NCCN(C)C)[nH]c3=O)c(=O)n2Cc2cc(F)c(F)c(F)c2)cc1` [Compound I-0074] cannot be ordered by pIC50: greater than 7.00 for the first, greater than 7.00 for the second.

`Cn1cnc(Cn2c(=O)nc(NC34CC(Nc5ncc(C(F)(F)F)cn5)(C3)C4)n(Cc3cc(F)c(F)c(F)c3)c2=O)n1` [II-0470] and `Cn1cnc(Cn2c(=O)nc(NC34CC(Nc5ncc(F)cn5)(C3)C4)n(Cc3cc(F)c(F)c(F)c3)c2=O)n1` [II-0473] cannot be ordered by pIC50: greater than 7.00 for the first, greater than 7.00 for the second.

`Cc1cncc(-n2c(=O)nc(Nc3ccc4nnn(C)c4c3)n(Cc3ccc(F)c(C#N)c3)c2=O)c1` [II-0357] and `Cc1cncc(-n2c(=O)nc(Nc3cc4c(=O)n(C)cnc4cc3Cl)n(Cc3ccc(F)c(C#N)c3)c2=O)c1` [II-0467] cannot be ordered by pIC50: greater than 7.00 for the first, greater than 7.00 for the second.

`Cn1cnc(Cn2c(=O)nc(Nc3cc4oc(N)nc4cc3Cl)n(Cc3cc(F)c(F)c(F)c3)c2=O)n1` [II-0511] and `Cn1cnc(Cn2c(=O)nc(Nc3cc4cn([C@H]5CC[C@H](N)CC5)nc4cc3Cl)n(Cc3cc(Cl)c(F)cc3F)c2=O)n1` [II-0531] cannot be ordered by pIC50: greater than 7.00 for the first, greater than 7.00 for the second.

Going from `Cc1nc2cc(Cl)c(Nc3nc(=O)n(Cc4ccc[nH]c4=O)c(=O)n3Cc3cc(F)c(F)cc3F)cc2n1C` [Compound I-0006] to `Cn1cnc(Cn2c(=O)nc(Nc3cc4cn(C)nc4cc3Cl)n(Cc3cc(Cl)ccc3O)c2=O)n1` [II-0428], the pIC50 falls from greater than 7.00 to 6.08.

`O=c1[nH]cccc1Cn1c(=O)nc(NC23CC(Nc4ncc(C5CC5)cn4)(C2)C3)n(Cc2cc(F)c(F)c(F)c2)c1=O` [II-0445] and `Cn1cnc(Cn2c(=O)cc(Nc3cc4cn(C)nc4cc3Cl)n(Cc3ccc(F)c(C#N)c3)c2=O)n1` [II-0379] cannot be ordered by pIC50: greater than 7.00 for the first, greater than 7.00 for the second.

With `COc1ccc(Nc2nc(=O)n(Cc3cnc(C)[nH]c3=O)c(=O)n2Cc2cc(F)c(F)c(F)c2)cc1` [Compound I-0403] the pIC50 was 6.51 and 6.00 to 7.00.
For `CS(=O)(=O)Nc1ccc(Nc2nc(=O)n(Cc3ccc[nH]c3=O)c(=O)n2Cc2cc(F)c(F)c(F)c2)cc1` [Compound I-0151], the pIC50 was 6.01 and 6.00 to 7.00.
In the case of `COc1ccc(Nc2nc(=O)n(Cc3cn(-c4ccccc4)cn3)c(=O)n2Cc2cc(F)c(F)c(F)c2)cc1` [Compound I-0412], the pIC50 was 5.29 and 5.00 to 6.00.
With `COc1ccc(Nc2nc(=O)n(Cc3cn(CC(N)=O)cn3)c(=O)n2Cc2cc(F)c(F)c(F)c2)cc1` [Compound I-0416] the pIC50 was 5.46 and 5.00 to 6.00.
`COc1ccc(Nc2nc(=O)n(Cc3cc(=O)[nH][nH]c3=O)c(=O)n2Cc2cc(F)c(F)c(F)c2)cc1` [Compound I-0102] was tested, and the pIC50 was 6.07 and 6.00 to 7.00.

— patent publication US12559474B2, “Triazine derivatives having virus replication inhibitory activity and pharmaceutical composition comprising the same” (priority 2021, dated 2026)
